Tests used:
[1] = test system: corneal endothelial cells; test: Western blotting of cyclin dependent kinase inhibiting factors and G1/S transition molecules in cultured corneal endothelial cells; type: cell-based, human
corneal endothelium = test: Partial rabbit corneal endothelial disorder model, eye drops; type: in vivo
Protocol: A stainless steel chip with a diameter of 7 mm was immersed in liquid nitrogen and cooled. The chip was contacted with the center portion of a corneal of a Japanese white rabbit (obtained from Oriental Bioservice) for 15 seconds under general anesthesia, such that corneal endothelial cells at the center portion partially fell off. Eye drops of SB203580 adjusted to 10 mM was then administered 4 times a day for 2 days at 50 μl per dose. As a control, eye drops of a base agent were administered in an eye in which a partial corneal endothelial disorder was similarly created, and a picture was taken. Further, the rabbit was euthanized and the corneal was extracted. The wounded area of the corneal endothelium was stained with alizarin red S (Nacalai Tesque, CI-58005) and observed. Furthermore, immunostaining was applied to corneal tissue with the cell proliferation marker Ki67. The same methodology as the aforementioned Examples or the like was used for immunostaining.

[2] = test system: human corneal endothelial cells; test: Decrease in cell density of cultured human corneal endothelial cells (phase difference microscope); type: cell-based; settings: 1, 3, 10 μM; after 20 days; vs control
Excerpt: For corneal endothelial cells, cell density decreases about 0.5% annually with age in a living organism. Further, the cell density also decreases due to various corneal endothelial diseases. Cell culture causes hypertrophy of cells and cellular as in a living organism and cellular senescence like reduction as in a living organism, which is a decrease in cell density. In this regard, the effect of p38 MAP kinase signal inhibition was studied on cellular senescence like reduction, which is a decrease in corneal endothelial cell density. […] Decrease in cell density due to culturing was inhibited and the cell density increased in an SB203580 concentration-dependent manner (bottom panel: vertical axis indicates cell density (mm^2) and the horizontal axis indicates, from the left, control, SB203580 1 μM, 3 μM, and 10 μM. ** indicates statistical significance (p<0.05) with respect to the control).
Cellular senescence-like decrease similar to a living organism, such as hypertrophy and decrease in density of cells, occurs from cell culture. In this regard, the effect of p38 MAP kinase signal inhibition on cellular senescence-like decrease such as decrease in corneal endothelial cell density was studied. […]

[3] = Western blotting after 20 days, 10 μM and 30 μM vs control
[4] = Western blotting, 10 μM, after 12 hours and 24 hours

Compound: C[S+]([O-])c1ccc(-c2nc(-c3ccncc3)c(-c3ccc(F)cc3)[nH]2)cc1 (stereo not shown) [SB203580, 4-(4-fluorophenyl)-2-(4-methylsulfinylphenyl)-5-(4-pyridyl)-1H-imidazole]
- expression of p16 [1, 3]: suppressed
- expression of p21 [1, 3]: suppressed
- expression of p27 [1, 3]: suppressed
- Rb protein phosphorylation (p-pRb) [1, 4]: promoted
- cyclin D1 expression [1, 4]: promoted
- cyclin D3 expression [1, 4]: promoted
- wound area of corneal endothelium (alizarin staining) (corneal endothelium; 10 mM eye drops 4 times a day for 2 days, 50 μl per dose, 6 eyes each, vs control, p<0.01): contracted significantly more
- transparency of cornea (anterior eye section picture) (corneal endothelium; 10 mM eye drops 4 times a day for 2 days, 50 μl per dose, day 2): recovered quickly
- Expression of Ki67 in corneal tissue (ratio of Ki67 positive cells) (corneal endothelium; 10 mM eye drops, vs control): significantly more cells
- Decrease in cell density due to culture [2]: inhibited in a SB203580 concentration dependent manner

Source: patent US10813920B2, “Drug for treating corneal endothelium by promoting cell proliferation or inhibiting cell damage” (THE DOSHISHA, priority 2013, dated 2020)
